According to patent publication US9546144B2, “Bifunctional compounds” (University of Pittsburgh—of the Commonwealth System of …, priority 2011, dated 2017):

Legend:
[1] = system: C57BL/6NTac mice; assay: radiation pulmonary fibrosis and survival after 20 Gy thoracic irradiation; type: in vivo, mouse; conditions: in drinking water
Source text: FIG. 23. MMS350 in drinking water decreases fibrosis in the lungs of thoracic irradiated (20 Gy) mice.
For lung irradiation, mice were irradiated to the thoracic cavity with shielding of the head and neck region and abdomen and lower body according to published methods. Animals received 20 Gy single fraction thoracic irradiation and were then maintained according to IACUC directed laboratory conditions. Mice were sacrificed at serial time points after thoracic irradiation including pre-irradiation, days 2, 7, 14, 28, 50, 75, 100, 110, 150 and 200 post-irradiation. Lungs were removed and sagittal sections assayed for percent of lung replaced by fibroblasts and organizing alveolitis according to published methods.
Lungs from irradiated and luc+ cell line injected mice were removed and serial sectioned. Sections were stained for luc+, GFP+ cells, BrdU incorporation, and for quantitation of percent lung replaced by fibrosis (organizing alveolitis) according to published methods.
Mice were injected intra-peritoneally with MMS350 or JP4-039 (GS-nitroxide) in 50% cremphor/50% ethanol according to published methods. For long-term administration of MMS350, the drug was administered in water bottles with bottles changed every 7 days. The dose of drug per bottle was 100 μM MMS350 starting on day 88. […]

[2] = storage in 25% w/w solutions of 3 and NMP; type: physicochemical; conditions: 25% w/w 3 and NMP at −20° C.
Method: Because sulfoxide 3 is a solid, it would have to be mixed with an appropriate water-soluble cosolvent to act as a compound storage additive. NMP was chosen for exploring this potential application due to its thermal stability and low toxicity. […] The compound test set (FIG. 2) was stored in 25% w/w solutions of 3 and NMP for 6 weeks at −20° C.

[3] = system: Brine shrimp; assay: brine shrimp toxicity assay; type: in vivo; conditions: concentrations up to 20 mg/mL
Method: General procedure for brine shrimp toxicity assays. Sample preparation. Stock solutions of 3 were prepared by dissolving 3 (50.0 mg) in 5.0 HPLC grade water (5.0 mL), (solution A) and 3 (2.50 g) in HPLC grade water (10.0 mL) (solution B). Stock solutions of DMSO were prepared by diluting DMSO (45 μL) with HPLC grade water (5.0 mL) (solution C) and DMSO (2.27 mL) with HPLC grade water (10.0 mL) (solution D).
In each case, 5 replicates were performed. Each replicate was performed in a 2 dram vial marked at the 4 and 5 mL volume points. To each vial was added artificial sea water (3 mL) followed by the appropriate volume of stock solution. For set 1 (1.0 mg/mL), solution A (0.500 mL) or solution C (0.500 mL) was added. For set 2 (5.0 mg/mL), solution B (0.100 mL) or solution D (0.100 mL) was added to each vial. For set 3 (20.0 mg/mL), solution B (0.400 mL) or solution D (0.400 mL) was added to each vial. For set 4 (50.0 mg/mL), solution B (1.00 mL) or solution D (1.00 mL) was added to each vial. […]
Brine shrimp eggs (San Francisco Bay Brand) were hatched in a commercial salt mixture (Instant Ocean). […] The shrimp were counted at t=24 h. Another drop of freshly prepared yeast solution (6 mg in 10 mL sea water) was added, the vials were maintained under illumination, and shrimp were counted at t=48 h. […]

[4] = log P by shake-flask method; type: physicochemical; conditions: n-octanol/water, rt (23.5° C.), average of 3 trials, read-out: log P (octanol-water partition coefficient)
Method: Determination of log P Value of 3.
The log P (octanol-water partition coefficient) was determined using the shake-flask method. Three determinations were made. A representative procedure is as follows: a 250-mL separatory funnel was charged with a solution of 3 (50.0 mg) in water (50.0 mL) and n-octanol (50.0 mL). The funnel was capped and inverted 100 times. The funnel and contents were left to stand at rt (23.5° C.) for 40 h. Aliquots of both phases were analyzed by UV/VIS (214 nm for the aqueous layer and 218 nm for the octanol layer), and the concentration in each layer was determined using previously generated calibration curves. In the case of the aqueous layer, a 10-fold dilution was necessary prior to measurement. All measurements were run in triplicate. The log P was determined as log ([3]octanol/[3]aqueous), and the average log P value from the 3 trials was −0.87.

[5] = system: bone marrow stromal cell line derived from C57BL/6NTac mice; assay: in vitro clonogenic radiation survival curves; type: cell-based, mouse; conditions: 100 μM added 10 min after irradiation; control 1.9±0.1, p=0.0444
Method: FIG. 12. In vitro radioprotection and mitigation of bone marrow stromal cells. In vitro survival curves were performed using a bone marrow stromal cell line derived from C57BL/6NTac mice. Cells were incubated in 100 μM MMS350 for one hour before irradiation or was added to the cells 10 min after irradiation. Cells were irradiated to doses ranging from 0 to 8 Gy, plated in 4 well tissue culture plates, incubated for 7 days at 37° C. in a humidified CO2 incubator, and stained with crystal violet. Colonies of greater than 50 cells were counted and analyzed using a linear quadratic model or single-hit, multi-target model.
The murine C57BL/6 bone marrow stromal cell line (Epperly M W, Sikora C A, Defilippi S, Gretton J E, Greenberger J S. Bone marrow origin of myofibroblasts in irradiation pulmonary fibrosis. Am J Resp Molecular Cell Biology 2003; 29:213-224) and its use in clonogenic radiation survival curves has been described (Epperly M W, Gretton J E, Bernarding M, Nie S, Rasul B, Greenberger J S. Mitochondrial localization of copper/zinc superoxide dismutase (Cu/ZnSOD) confers radioprotective functions in vitro and in vivo. Radiation Research 2003; 160:568-578).
Cell lines were irradiated at dose rate of 70 cGy per minute using a Cesium Gamma Cell Irradiator according to published methods. […]

CC1(C[S+]([O-])CC2(C)COC2)COC1 [compound 3, 3,3′-Sulfinylbis(methylene)bis(3-methyloxetane)]
survival of thoracic irradiated mice [1]: significantly increased survival | behaviour of 3 in the storage solution [2]: partly precipitated from the solution | mortality after 48 h [3]: < 10% | logP at 40 h [4]: -0.87 | D0 of the survival curve [5]: 2.4±0.3
